Assay results as given in ChEMBL document CHEMBL1201862, “PubChem BioAssay data set” (2004).
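Where inhibition never reached the appropriate level, the endpoint shown equals the highest concentration tested. Otherwise, values were interpolated linearly from a five-concentration, 48-hour dose response in 96-well plates. GI50 is the concentration that inhibits growth by half.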 The source made the active and inactive calls. Cut-off read from the data, not from the text of the source: active = GI50 up to about 1.1 µM and inactive = higher.

Key:
Assay in all cases: NCI anticancer screen, dose series, 48 h
OVCAR-8 = system: OVCAR-8
SK-MEL-2 = system: SK-MEL-2
SF-539 = system: SF-539
OVCAR-4 = system: OVCAR-4
UO-31 = system: UO-31
M14 = system: M14
ACHN = system: ACHN
NCI-H522 = system: NCI-H522
MOLT-4 = system: MOLT-4
LOX IMVI = system: LOX IMVI
SK-MEL-28 = system: SK-MEL-28
HCT-116 = system: HCT-116
786-0 = system: 786-0
CAKI-1 = system: CAKI-1
EKVX = system: EKVX
SR = system: SR
A498 = system: A498

Measured: GI50

O=C(CSc1nnc(Cc2ccccc2)o1)Nc1cccc([N+](=O)[O-])c1
inactive: OVCAR-8 > 100 µM | SK-MEL-2 > 100 µM | SF-539 > 100 µM | OVCAR-4 > 100 µM | UO-31 > 100 µM | M14 > 100 µM | ACHN > 100 µM | NCI-H522 > 100 µM | MOLT-4 > 100 µM | LOX IMVI > 100 µM | SK-MEL-28 > 100 µM | HCT-116 > 100 µM | 786-0 > 100 µM

CCOc1ccc(NCC(=O)N2CC(=O)Nc3ccccc32)cc1
inactive: OVCAR-8 > 100 µM | SK-MEL-2 > 100 µM | SF-539 > 100 µM | OVCAR-4 > 100 µM | UO-31 > 100 µM | CAKI-1 > 100 µM | M14 > 100 µM | ACHN > 100 µM | NCI-H522 > 100 µM | EKVX > 100 µM | MOLT-4 > 100 µM | LOX IMVI > 100 µM | SR > 100 µM | SK-MEL-28 > 100 µM | HCT-116 > 100 µM | 786-0 > 100 µM

COc1cc(NC(C)=O)c2[nH]c3c(C)cc(NC(C)=O)c(C)c3c2c1
inactive: OVCAR-8 > 100 µM | SK-MEL-2 > 100 µM | SF-539 > 100 µM | OVCAR-4 > 100 µM | UO-31 > 100 µM | CAKI-1 > 100 µM | A498 > 100 µM | M14 > 100 µM | ACHN > 100 µM | NCI-H522 > 100 µM | EKVX > 100 µM | MOLT-4 > 100 µM | SK-MEL-28 > 100 µM | HCT-116 > 100 µM | 786-0 > 100 µM

C/C(CC(=O)Nc1ccc(Cl)cc1)=N\NC(=O)C[n+]1ccccc1
inactive: OVCAR-8 > 100 µM | SK-MEL-2 > 100 µM | SF-539 > 100 µM | UO-31 > 100 µM | M14 > 100 µM | ACHN > 100 µM | NCI-H522 75 µM | EKVX > 100 µM | MOLT-4 > 100 µM | LOX IMVI > 100 µM | SK-MEL-28 > 100 µM | HCT-116 > 100 µM | 786-0 > 100 µM

CCOC(=O)C1(C#N)C(c2ccccc2)CC(O)(c2ccc([N+](=O)[O-])cc2)C(C(=O)c2ccc([N+](=O)[O-])cc2)C1c1ccccc1 (centres undefined)
inactive: OVCAR-8 > 100 µM | SK-MEL-2 > 100 µM | OVCAR-4 > 100 µM | UO-31 > 100 µM | CAKI-1 > 100 µM | M14 > 100 µM | ACHN > 100 µM | NCI-H522 34 µM | EKVX > 100 µM | MOLT-4 > 100 µM | LOX IMVI > 100 µM | SR > 100 µM | SK-MEL-28 > 100 µM | HCT-116 > 100 µM | 786-0 > 100 µM

COC(=O)C(CC(C)C)NC(=O)NC12CC3CC(CC(F)(C3)C1)C2 (centres undefined)
inactive: OVCAR-8 > 100 µM | SK-MEL-2 > 100 µM | SF-539 > 100 µM | UO-31 46.6 µM | A498 > 100 µM | M14 > 100 µM | ACHN > 100 µM | NCI-H522 > 100 µM | EKVX > 100 µM | MOLT-4 > 100 µM | LOX IMVI > 100 µM | SK-MEL-28 > 100 µM | HCT-116 > 100 µM | 786-0 > 100 µM

Cc1c(C)c2cc3c(=O)c(CCl)coc3c(C)c2oc1=O
inactive: OVCAR-8 > 100 µM | SK-MEL-2 > 100 µM | SF-539 > 100 µM | UO-31 > 100 µM | A498 > 100 µM | M14 > 100 µM | ACHN > 100 µM | NCI-H522 95.3 µM | EKVX > 100 µM | MOLT-4 > 100 µM | LOX IMVI > 100 µM | SK-MEL-28 > 100 µM | HCT-116 > 100 µM | 786-0 60.5 µM

CC(=O)CCC#Cc1ccccc1C(=O)C(C)=[N+]=[N-]
inactive: OVCAR-8 42.8 µM | SK-MEL-2 72.3 µM | SF-539 97.3 µM | OVCAR-4 50.9 µM | UO-31 44.4 µM | A498 53.6 µM | M14 20.3 µM | ACHN 39.5 µM | EKVX 81.8 µM | MOLT-4 19.8 µM | LOX IMVI 32.2 µM | SK-MEL-28 18.2 µM | HCT-116 13 µM

CC(C)=CCc1c(O)cc(O)c2c1OC(c1ccc(O)cc1)C(O)C2=O (centres undefined)
inactive: OVCAR-8 31.8 µM | SK-MEL-2 23.6 µM | SF-539 18.4 µM | OVCAR-4 30.5 µM | UO-31 40 µM | A498 42.2 µM | M14 22.6 µM | ACHN 25.5 µM | NCI-H522 18.9 µM | EKVX 25.6 µM | MOLT-4 > 10 µM | LOX IMVI 18.7 µM | SK-MEL-28 23.3 µM | HCT-116 32.4 µM

CC(=O)OC1CC2OC(Cc3ccccc32)O1 (centres undefined)
inactive: OVCAR-8 > 100 µM | SK-MEL-2 > 100 µM | SF-539 29.9 µM | UO-31 > 100 µM | M14 79.1 µM | ACHN > 100 µM | NCI-H522 > 100 µM | EKVX > 100 µM | MOLT-4 48.9 µM | LOX IMVI > 100 µM | SR > 100 µM | SK-MEL-28 > 100 µM | HCT-116 > 100 µM | 786-0 > 100 µM

O=C(C=P(c1ccccc1)(c1ccccc1)c1ccccc1)CC(=S)CC(=O)C=P(c1ccccc1)(c1ccccc1)c1ccccc1
inactive: OVCAR-8 3.56 µM | SF-539 4.09 µM | OVCAR-4 7.5 µM | UO-31 29.3 µM | CAKI-1 16.2 µM | A498 4.14 µM | M14 4.12 µM | ACHN 7.08 µM | NCI-H522 2.74 µM | EKVX 21.6 µM | LOX IMVI 3.53 µM | SK-MEL-28 8.22 µM | HCT-116 2.86 µM | 786-0 4.16 µM

CC(C)OC(=O)C1Cc2c([nH]c3ccccc23)C(c2ccccc2)N1 (centres undefined)
inactive: OVCAR-8 > 100 µM | SK-MEL-2 18.2 µM | SF-539 > 100 µM | OVCAR-4 79.8 µM | UO-31 18 µM | CAKI-1 > 100 µM | A498 88.5 µM | M14 81.7 µM | ACHN 93.8 µM | NCI-H522 29.2 µM | EKVX 89.3 µM | MOLT-4 42.5 µM | LOX IMVI > 100 µM | SK-MEL-28 42.5 µM | HCT-116 62.4 µM | 786-0 27.7 µM

Cc1ccccc1NC(=O)C(=O)CC(=O)c1ccc([N+](=O)[O-])cc1
inactive: OVCAR-8 > 100 µM | SK-MEL-2 > 100 µM | SF-539 > 100 µM | OVCAR-4 > 100 µM | UO-31 > 100 µM | CAKI-1 > 100 µM | M14 > 100 µM | ACHN > 100 µM | EKVX > 100 µM | LOX IMVI > 100 µM | SK-MEL-28 > 100 µM | HCT-116 > 100 µM | 786-0 > 100 µM

COc1cc(C(=O)C/C(CCC(=O)Nc2ccc(Cl)cc2Cl)=N/NC(=O)C(N)=O)ccc1O
inactive: OVCAR-8 > 100 µM | SK-MEL-2 > 100 µM | SF-539 > 100 µM | OVCAR-4 > 100 µM | UO-31 72.9 µM | CAKI-1 > 100 µM | A498 > 100 µM | M14 > 100 µM | ACHN > 100 µM | NCI-H522 > 100 µM | EKVX > 100 µM | MOLT-4 > 100 µM | SK-MEL-28 > 100 µM | HCT-116 > 100 µM | 786-0 > 100 µM
